Test results: patent US9556437B2, “FAT1 gene in cancer and inflammation” (DEPARTMENT OF BIOTECHNOLOGY (DBT), priority 2012, dated 2017)

Assays:
Format in all cases: cell-based, human
PDCD4 [1] = test: Western blot PDCD4 protein; settings: U87MG, A172, U373MG and T98G, vs siControl
Description: (§1) Western Blotting Analyses: Cells were lysed in triple detergent buffer containing protease and phosphatase inhibitors (Sigma Aldrich), lysates were quantified by BCA kit (Pierce, Thermo Fisher Scientific, Rockford, Ill. USA) and electrophoresed in 10% SDS-PAGE and electroblotted on nitrocellulose membrane (Millipore, Billerica, Mass., USA). Membrane was blocked with 5% bovine serum albumin (BSA) in 1×TBS at 4° C. for overnight. Primary and secondary antibody was diluted in 5% BSA and 0.1% tween-20 in 1×TBS. Blot was incubated in primary antibody overnight at 4° C. followed by secondary antibody incubation for 2 hrs at room temperature. Blot was developed by BCIP-NBT (Promega, Madison, Wis., USA) and captured using Alpha Imager EP software.

PDCD4 [2] = test: PDCD4 mRNA expression by q-PCR; settings: 72 hrs post siRNA transfection
Description: Cell Culture and siRNA Transfection: The human glioma cell lines U87MG, U373, A172, T98G, GOS3 and SW1088 were obtained from ATCC; Rockville, Md., cultured in DMEM (Sigma-Aldrich, Switzerland) supplemented with 10% (v/v) FCS (Sigma-Aldrich), 3.7 g/l sodium bicarbonate (Sigma-Aldrich), Ciprofloxacin 10 μg/ml and 5% CO2 at 37° C. For transfection, 2×10^5 cells were seeded per 25 cm^2 flask. After 24 hrs, cells were transfected with FAT1 siRNA and universal medium GC control siRNA (Invitrogen) according to the manufacturer's protocol with a final concentration of 20 nM of siRNA using LIPOFECTAMINE 2000 (Invitrogen) and Opti-Mem media (Invitrogen). After 4 hrs of siRNA transfection, the media was supplemented with DMEM containing 2×FCS. The ability of each siRNA to mediate knockdown of FAT1 mRNA was confirmed using qRT-PCR. Photomicrographs of the cells were taken using an inverted phase contrast microscope (Nikon TMS, Phase contrast microscope, Japan). For simultaneous knockdown of FAT1 and PDCD4, siRNA from Dharmacon were used. Transfection was performed as earlier with 50 nM of FAT1 siRNA along with 50 nM of PDCD4 siRNA or 50 nM of control siRNA.
cDNA Synthesis and Quantitative PCR: Total RNA was isolated from cells at appropriate time point (vide supra) using TRIzol reagent (Invitrogen), quantified using a Nanodrop ND-1000 spectrophotometer. DNase (Ambion) treatment was given and 1 μg of total RNA was used for cDNA synthesis, done by Fermentas RevertAid™ First Strand cDNA Synthesis Kit using random decamers. PCR reactions were carried in 10 μL reaction volumes (2.5 μL of 1:5 diluted cDNA, […] of primer mix (0.5 pmol/μL as final concentration of each primer), 1 μL, of 10× Taq Buffer A, 0.5 U Taq polymerase (Bangalore Genei, Bangalore, India), 1 μL Syto9 (Invitrogen), 0.25 μL of 10 mM dNTPs (MBI Fermentas, Thermo Fisher Scientific, Rockford, Ill. USA), and 4.6 μL of nuclease-free water (Ambion) on a RotorGene6000 Real Time PCR in triplicates. The detail of the primers used is given in Table 1. ΔCt values were defined as target gene Ct minus 18s RNA Ct and averaged for each triplicate sample. Statistical significance was determined by Student's t-test analysis (P<0.05).

U87MG cells [3] = test: In vitro Scratch Assay of cell migration
Description: FIGS. 14A to 14D: Effect of NS-398 and FAT1 knockdown simultaneously on Cell Migration by In-vitro Scratch Assay. The in vitro Scratch Assay was performed at 72 hours after culturing cells as follows: At Day 0, 5,000 U87MG cells are plated per well of a 96 well plate. […] (C) Assay of cell migration by the Modified Boyden Chamber Assay under conditions of normoxia and hypoxia. (D) Quantitation of data from (C).
The Scratch Assay is performed at 72 hours after treatment. A scratch is made on the culture surface using a sterile 10 μl tip and cells were allowed to grow. Images were captured after every 3 hrs to monitor the closure of the wound in the culture surface for next 24 hrs.

phospho-Akt = test: Western blot phospho-Akt; settings: U87MG cells after FAT1 knockdown
Description: FIG. 9: FAT1 knockdown results in increased p-akt level in U87MG cell line; Akt is known to negatively regulate PDCD4 expression; therefore, the effect of FAT1 knockdown on the phosphorylation status of Akt in U87MG cells was checked by Western blot analysis using β-actin as a loading control.
as §1

U87MG cells [4] = test: Invasion assay, matrigel; settings: U87MGsiFAT1 vs siControl, P<0.01
Description: (§2) Migration and Invasion Assays: The modified Boyden chamber/matrigel assay was performed according to the manufacturer's directions (BD Biosciences, Bedford, Mass.). For in vitro migration assays, chambers with control inserts that lacked the matrigel coating were used. Transfections were carried out in U87MG and A172 cells and 48 hrs later 3×10^4 U87MG cells/well and 7×10^4 A172 cells/well were resuspended in serum-free DMEM and seeded in triplicate in matrigel-coated (1 mg/ml; BD Biosciences) and uncoated control inserts (8-μm pore-size, BD Bioscience, Bedford, Mass.). The remaining protocol was done as previously described.

A172 cells [5] = test: Invasion assay, matrigel; settings: A172siFAT1 vs siControl, P<0.01
Description: as §2

U87MG cells [6] = test: Migration assay, modified Boyden chamber; settings: U87MGsiFAT1 vs siControl, 24 hrs assay, 72 hrs post-transfection, P<0.01
Description: as §2

A172 cells [7] = test: Migration assay, modified Boyden chamber; settings: A172siFAT1 vs siControl, 24 hrs assay, 72 hrs post-transfection, P<0.001
Description: as §2

Substance: siFAT1: FAT1 specific siRNA (Invitrogen), FAT Stealth RNAi siRNA-I (HSS103567), used for further experiments (sense CCCAACACACCUGUGGUCAUGGUAA; antisense UUACCAUGACCACAGGUGUGUUGGG; Stealth modification, chemistry not fully specified; listed as Homo sapiens)
- PDCD4 protein level (PDCD4 [1]): increased
- increase in PDCD4 mRNA expression (PDCD4 [2]; A172, vs siControl): 2.8 fold
- increase in PDCD4 mRNA expression (PDCD4 [2]; T98G, vs siControl): 3.5 fold
- increase in PDCD4 mRNA expression (PDCD4 [2]; U87MG, vs siControl): 2.4 fold
- increase in PDCD4 mRNA expression (PDCD4 [2]; U373MG, vs siControl): 3.2 fold
- increase in PDCD4 mRNA expression (PDCD4 [2]; all the GBM cell lines (U87MG, A172, U373 and T98)): more than two fold
- inhibition of cell migration (U87MG cells [3]; Scratch Assay at 72 hours after treatment): about 50%
- migration ability of cells (U87MG cells [3]; scratch and modified Boyden chamber assays, normoxic or hypoxic conditions (FIG. 14)): reduced
- phospho-Akt level (phospho-Akt): increase
- reduction in invasion (U87MG cells [4]): > 2 fold
- reduction in invasion (A172 cells [5]): > 1.5 fold
- reduction in migration (U87MG cells [6]): > 2 fold
- reduction in migration (A172 cells [7]): > 3 fold
